Earlier results as cited in patent US12343427B1, “Stable intravenous diltiazem hydrochloride formulation and use thereof” (Nivagen Pharmaceuticals, Inc., priority 2024, dated 2025).

Target: CYP2D6 (Homo sapiens, UniProt P10635)
Conditions: Molden E, et al. Drug Metab Dispos. 30: 1-3 (2002)

CYP2D6, sequence (P10635 whole entry): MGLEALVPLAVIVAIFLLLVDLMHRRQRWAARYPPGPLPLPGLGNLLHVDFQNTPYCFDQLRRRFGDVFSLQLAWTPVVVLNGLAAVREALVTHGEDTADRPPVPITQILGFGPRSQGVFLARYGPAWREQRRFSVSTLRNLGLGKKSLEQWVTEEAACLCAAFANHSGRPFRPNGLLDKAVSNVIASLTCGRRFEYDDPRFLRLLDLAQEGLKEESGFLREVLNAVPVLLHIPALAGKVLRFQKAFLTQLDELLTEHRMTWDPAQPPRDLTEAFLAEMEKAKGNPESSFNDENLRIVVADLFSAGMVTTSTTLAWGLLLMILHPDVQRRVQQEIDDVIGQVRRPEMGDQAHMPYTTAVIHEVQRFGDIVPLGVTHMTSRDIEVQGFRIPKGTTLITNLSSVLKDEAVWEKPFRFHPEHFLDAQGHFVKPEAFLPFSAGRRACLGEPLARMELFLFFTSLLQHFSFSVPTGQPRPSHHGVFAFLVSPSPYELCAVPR

SMILES: COc1ccc([C@@H]2Sc3ccccc3N(CCN(C)C)C(=O)[C@@H]2O)cc1 [Desacetyl-diltiazem]
- affinity to CYP2D6 compared with CYP3A4: severalfold higher affinity to CYP2D6 compared with CYP3A4
